Assay results: patent publication US20090209570A1 (priority 2001, published 2009)
Counter-ions that a name gives are not always drawn. Like-named read-outs stand apart in the source and are kept apart here.

Legend:
μ-opioid receptors = biological target: T1, μ-opioid receptors (Rattus norvegicus, UniProt P33535); test: Opioid receptor binding studies with [3H]DAMGO on rat's brain homogenisates
T1 construct: from tissue; host or cells: rat brain homogenate

rats = test: Analgesia test (rat tail flick test); type: in vivo; settings: for sc/icv: ratio of tail flick ED50 sc to icv; for Analgesic effect (in percent) after 10 minutes / Analgesic effect (in percent) after 20 minutes / Analgesic effect (in percent) after 30 minutes / Analgesic effect (in percent) after 60 minutes / Analgesic effect (in percent) after 120 minutes / Analgesic effect (in percent) after 180 minutes: 3 0.5 μg/rat, 4 0.25 μg/rat, rats 120 g; for Analgesic effect (in percent) after 10 minutes / Analgesic effect (in percent) after 20 minutes / Analgesic effect (in percent) after 30 minutes / Analgesic effect (in percent) after 60 minutes / Analgesic effect (in percent) after 120 minutes: morphine 50 μg/rat
Method: A test on rats was applied (“rat tail flick test”). This test was carried out as previously described (Zs. Fürst et al., Eur. J. Pharmacol. 1993, Vol. 236, pp. 209-215).

anaesthetised rats = settings: rat, in vivo; for respiratory depression at analgesic doses (in words): sc
in vivo = settings: rat
[1] = test system: rats with ligations around the ischias nerve; test: Cold water allodynia test (thermal allodynia); type: in vivo, rat
Method: (§1) The tests involve models to test the effect of a substance on neuropathic pain.
(§2) For both tests ligations were applied around the ischias nerve (G. J. Bennett and Y. K. Xie, Pain 1988, Vol. 33, 87-107).
Thermal stimulation (cold water) was used to initiate withdrawal of the hind paw of the rats (200-300 g). After 5, 15 and 30 min (after application of the substance) the latency period of the withdrawal of the hind paw was studied (J. C. Hunter et al., Eur. J. Pharmacol., 1997, Vol. 324, 153-160). The substances to be investigated were applied via intraplant (ipl).

[2] = test system: rats with ligations around the ischias nerve; test: Von Frey test (mechanical allodynia); type: in vivo, rat
Method: as §1, §2
A slight pressure (2 to 60 g) was exerted on the skin of the hind paw of the rats (200-250 g) using Von Frey hairs and the latency period of withdrawal of the hind paw was studied at various time intervals (5, 15, 30 and 60 minutes after the application of the substance). The substance to be investigated was applied via intraplant (ipl).

[3] = test system: carrageen-induced hyperalgesia on the right hind paw of rats; test: Randall-Selitto test (hind-paw withdrawal latency, mechanical stimulation); type: in vivo, rat
Method: The Randall-Selitto Test (L. O. Randall and J. J. Selitto, Arch. Int. Pharmacodyn. 1957, Vol. 111, pp. 409-419) was applied to study the analgesic effect on carrageen-induced hyperalgesia on the right hind paw of rats. In this way the “hind-paw withdrawal latency” (HWL; latency period for withdrawing the right hind paw) with mechanical stimulation (e.g. I. Bileviciute-Ljungar and M. Spetea, Br. J. Pharmcol. 2001, Vol. 132, pp. 252-258) is measured.

[4] = central, rat tail flick test, intracerebroventricular application, read-out: ED50 (μg/kg, icv)
[5] = sc, rat tail flick test, subcutaneous application, read-out: ED50 (μg/kg, sc)
[6] = 100 μg/rat after subcutaneous application
[7] = peripherally acting opioid antagonist
[8] = 20 μg/kg, subcutaneous application

T1 sequence (P33535 whole entry): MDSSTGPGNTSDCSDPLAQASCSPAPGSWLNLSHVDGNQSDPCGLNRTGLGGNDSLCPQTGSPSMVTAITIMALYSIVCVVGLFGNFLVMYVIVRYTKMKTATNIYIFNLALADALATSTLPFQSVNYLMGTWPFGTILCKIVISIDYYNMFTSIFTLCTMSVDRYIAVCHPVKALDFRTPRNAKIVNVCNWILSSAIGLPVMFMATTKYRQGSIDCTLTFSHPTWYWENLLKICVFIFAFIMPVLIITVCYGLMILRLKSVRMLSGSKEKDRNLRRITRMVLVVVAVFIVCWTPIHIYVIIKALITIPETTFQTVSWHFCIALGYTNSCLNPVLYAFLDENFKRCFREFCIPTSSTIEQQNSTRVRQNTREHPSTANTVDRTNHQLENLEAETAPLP

CO[C@@]12CCC(NCC(=O)OC(C)(C)C)[C@@H]3Oc4c(O)ccc5c4[C@@]31CCN(C)C2C5 (stereo in doubt) [Compound 2, (4,5α-epoxy-3-hydroxy-14β-methoxy-17-methylmorphinan-6β-ylamino)-acetic acid-tert.-butylester]
Ki (μ-opioid receptors): 1.3 nM

CO[C@@]12CC[C@H](NCC(=O)OC(C)(C)C)[C@@H]3Oc4c(O)ccc5c4[C@@]31CCN(C)[C@@H]2C5 [Compound 1, (4,5α-epoxy-3-hydroxy-14β-methoxy-17-methylmorphinan-6α-ylamino)-acetic acid-tert.-butylester]
Ki (μ-opioid receptors): 0.48 nM

CO[C@@]12CC[C@@H](N[C@@H](C)C(=O)O)[C@@H]3Oc4c(O)ccc5c4[C@@]31CCN(C)C2C5 [Compound 8, (2′S)-2′-(4,5α-epoxy-3-hydroxy-14β-methoxy-17-methylmorphinan-6β-ylamino)-propionic acid bis(tetrafluoroborate)]
ED50 (rats; [4]): 0.67 µg/kg
analgesic activity (in words) (rats; rat tail flick test): very high analgesic activity
sc/icv (rats): 746
ED50 (rats; [5]): 500 µg/kg

CN1CC[C@]23c4c5ccc(O)c4O[C@H]2[C@@H](O)C=C[C@H]3[C@H]1C5 [Morphine, morphine, reference compound]
sc/icv (anaesthetised rats): 34
ED50 (in vivo): 0.083 mg/kg
ED50 (in vivo; sc): 2.8 mg/kg
ED50 (rats; [4]): 100 µg/kg
Analgesic effect (in percent) after 10 minutes (rats; icv): 57%
Analgesic effect (in percent) after 20 minutes (rats; icv): 91%
Analgesic effect (in percent) after 30 minutes (rats; icv): 74%
Analgesic effect (in percent) after 60 minutes (rats; icv): 59%
Analgesic effect (in percent) after 120 minutes (rats; icv): 20%
sc/icv (rats): 19
ED50 (rats; [5]): 1900 µg/kg

CO[C@@]12CC[C@H](N[C@@H](Cc3ccccc3)C(=O)O)[C@@H]3Oc4c(O)ccc5c4[C@@]31CCN(C)C2C5 [Compound 11, (2′S)-2′-(4,5α-epoxy-3-hydroxy-14β-methoxy-17-methylmorphinan-6α-ylamino)-3′-phenylpropionic acid bis(tetrafluoroborate)]
Ki (μ-opioid receptors): 0.95 nM

CO[C@@]12CC[C@H](NCC(=O)O)[C@@H]3Oc4c(O)ccc5c4[C@@]31CCN(C)C2C5 [Compound 3, (4,5α-epoxy-3-hydroxy-14β-methoxy-17-methylmorphinan-6α-ylamino)-acetic acid sesqui(trifluoroacetate)]
respiratory depression at analgesic doses (in words) (anaesthetised rats): not able to initiate a respiratory depression
ED50 (in vivo): 0.00083 mg/kg
ED50 (in vivo; sc): 1 mg/kg
ED50 (rats; [4]): 0.49 µg/kg
passage of the blood-brain barrier (concluded from sc/icv figures) (rats; conclusion from tail flick sc/icv ratio): only overcome the blood-brain barrier in a very restricted manner
Analgesic effect (in percent) after 10 minutes (rats; icv): 46%
Analgesic effect (in percent) after 20 minutes (rats; icv): 62%
Analgesic effect (in percent) after 30 minutes (rats; icv): 59%
Analgesic effect (in percent) after 60 minutes (rats; icv): 100%
Analgesic effect (in percent) after 120 minutes (rats; icv): 100%
Analgesic effect (in percent) after 180 minutes (rats; icv): 90%
analgesic activity (in words) (rats; rat tail flick test): very high analgesic activity
sc/icv (rats): 176
ED50 (rats; [5]): 86 µg/kg

CCOC(=O)CN[C@@H]1CC[C@@]2(OC)[C@H]3Cc4ccc(O)c5c4[C@@]2(CCN3C)[C@H]1O5 (as salt: hydrochloride) [Compound 23, (4,5α-epoxy-3-hydroxy-14β-methoxy-17-methylmorphinan-6β-ylamino)-acetic acid-ethylester dihydrochloride]
melting point: > 200 °C

CO[C@@]12CC[C@H](N[C@@H](C)C(=O)O)[C@@H]3Oc4c(O)ccc5c4[C@@]31CCN(C)C2C5 [Compound 7, (2′S)-2′-(4,5α-epoxy-3-hydroxy-14β-methoxy-17-methylmorphinan-6α-ylamino)-propionic acid bis(tetrafluoroborate)]
ED50 (rats; [4]): 0.75 µg/kg
analgesic activity (in words) (rats; rat tail flick test): very high analgesic activity
sc/icv (rats): 133
ED50 (rats; [5]): 100 µg/kg

CO[C@@]12CC[C@@H](N)[C@@H]3Oc4c(O)ccc5c4[C@@]31CCN(C)[C@@H]2C5
melting point: > 235 °C

CCOC(=O)CN[C@@H]1CC[C@@]2(OC)[C@H]3Cc4ccc(O)c5c4[C@@]2(CCN3C)[C@H]1O5 [Compound 23, (4,5α-epoxy-3-hydroxy-14β-methoxy-17-methylmorphinan-6β-ylamino)-acetic acid-ethylester dihydrochloride]
Ki (μ-opioid receptors): 0.8 nM

CO[C@@]12CC[C@@H](NCC(=O)O)[C@@H]3Oc4c(O)ccc5c4[C@@]31CCN(C)C2C5 [Compound 4, (4,5α-epoxy-3-hydroxy-14β-methoxy-17-methylmorphinan-6β-ylamino)-acetic acid sesqui(trifluoroacetate)]
anti-allodynic activity (rise of at least 100% in latency of hind paw withdrawal taken as significant) [1, 6]: significant anti-allodynic activity
anti-allodynic effect after naloxone methiodide (ipl) [1, 7]: completely neutralise
respiratory depression at analgesic doses (in words) (anaesthetised rats): not able to initiate a respiratory depression
ED50 (in vivo): 0.00042 mg/kg
ED50 (in vivo; sc): 0.5 mg/kg
anti-allodynic activity (rise of at least 100% in latency of hind paw withdrawal taken as significant) [2, 6]: significant anti-allodynic activity
anti-allodynic effect after naloxone methiodide (ipl) [2, 7]: completely neutralise
ED50 (rats; [4]): 0.42 µg/kg
Analgesic effect (in percent) after 10 minutes (rats; icv): 61%
Analgesic effect (in percent) after 20 minutes (rats; icv): 74%
Analgesic effect (in percent) after 30 minutes (rats; icv): 76%
Analgesic effect (in percent) after 60 minutes (rats; icv): 100%
Analgesic effect (in percent) after 120 minutes (rats; icv): 100%
Analgesic effect (in percent) after 180 minutes (rats; icv): 90%
analgesic activity (in words) (rats; rat tail flick test): very high analgesic activity
times as active as morphine after intracerebroventricular application (icv) (rats; rat tail flick test, icv, relative to morphine): 238 times
times as active as morphine after subcutaneous application (sc) (rats; rat tail flick test, sc, relative to morphine): 68 times
sc/icv (rats): 67
ED50 (rats; [5]): 28 µg/kg
analgesic activity (rise in HWL of at least 100% taken as significant) [3, 8]: significant analgesic activity
duration of analgesic effect [3, 8]: approx. 14 hours
passage of the blood-brain barrier (concluded from naloxone methiodide antagonism) ([3]; conclusion from the Randall-Selitto test): cannot overcome the blood-brain barrier

CO[C@@]12CC[C@@H](NC(=NC(=O)OC(C)(C)C)NC(=O)OC(C)(C)C)[C@@H]3Oc4c(O)ccc5c4[C@@]31CCN(C)C2C5 [Compound 16]
Ki (μ-opioid receptors; [3H]DAMGO as radio-ligand, rat's brain homogenisates, read-out: Ki (nM) (μ-receptors)): 0.61 nM

CO[C@@]12CC[C@@H](NC(=N)N)[C@@H]3Oc4c(O)ccc5c4[C@@]31CCN(C)[C@@H]2C5 [Compound 17, 4,5α-epoxy-6β-guanidinyl-14β-methoxy-17-methylmorphinan-3-ol dihydrochloride]
Ki (μ-opioid receptors): 0.25 nM

CCOC(=O)CN[C@H]1CC[C@@]2(OC)[C@H]3Cc4ccc(O)c5c4[C@@]2(CCN3C)[C@H]1O5 [Compound 22, (4,5α-epoxy-3-hydroxy-14β-methoxy-17-methylmorphinan-6α-ylamino)-acetic acid-ethylester dihydrochloride]
Ki (μ-opioid receptors): 0.21 nM

O=C(O)CN[C@@H]1CC[C@@]2(OCCCc3ccccc3)[C@H]3Cc4ccc(O)c5c4[C@@]2(CCN3CC2CC2)[C@H]1O5 [Compound 38, {17-cyclopropylmethyl-4,5α-epoxy-3-hydroxy-14β-[(3-phenylpropyl)oxy]-morphinan-6β-ylamino}acetic acid dihydrochloride]
Ki (μ-opioid receptors): 0.24 nM
